From ChEMBL document CHEMBL6153138, “Discovery of Novel Aromatic Urea-Imidazole Salt Derivatives for Cancer Therapy via Targeting ERK1/2” (J Med Chem, 2025)
The source made the active and inactive calls. The rule behind the calls is not given here.

How the values were obtained:
4T1 [1] = assay: Antitumor activity against mouse 4T1 cells implanted in female BALB/c mouse model assessed as reduction in p-90RSK phosphorylation level at 50 mg/kg, po qd by immunohistochemical analysis; assay type: functional, organism-based
4T1 [2] = assay: Antitumor activity against mouse 4T1 cells implanted in female BALB/c mouse model assessed as tumor growth inhibition at 25 mg/kg, po qd measured for 18 days relative to control; assay type: functional; conditions: 4T1, 432 h, time 18 day, read-out: TGI
MCF7 [3] = assay: Induction of apoptosis in human MCF7 cells assessed as late apoptotic cells at 2 uM incubated for 48 hrs by Annexin V/FITC and PI staining based flow cytometry analysis (reference value: 2.5%); assay type: functional
[4] = Toxicity in female BALB/c mouse assessed as effect ALB level in serum at 25 to 50 mg/kg, po qd measured after 18 days by biochemical analysis; assay type: organism-based; conditions: in vivo, 432 h, dose 25-50 mg/kg, time 18 day
4T1-Luc [5] = assay: Anti-metastatic activity in mouse 4T1-Luc cells assessed as reduction in destroyed alveolar wall at 25 to 50 mg/kg, po measured after 20 days by H and E staining based analysis; assay type: functional, organism-based; conditions: dose 25-50 mg/kg, time 20.0 day
4T1 [6] = assay: Antitumor activity against mouse 4T1 cells implanted in female BALB/c mouse model assessed as increase in LC3B expression administered as po by immunohistochemical analysis; assay type: functional, organism-based; conditions: dose 25-50 mg/kg
4T1-Luc [7] = assay: Anti-metastatic activity in mouse 4T1-Luc cells assessed as reduction in number of tumor metastatic nodules at 25 to 50 mg/kg, po measured after 20 days; assay type: functional, organism-based; conditions: dose 25-50 mg/kg, time 20.0 day
4T1 [8] = assay: Antitumor activity against mouse 4T1 cells implanted in female BALB/c mouse model assessed as reduction in number of PCNA-positive proliferative cells at 25 to 50 mg/kg, po qd by immunohistochemical analysis; assay type: functional, organism-based; conditions: dose 25-50 mg/kg
4T1 [9] = assay: Antitumor activity against mouse 4T1 cells implanted in female BALB/c mouse model assessed as reduction in tumor weight at 50 mg/kg, po qd measured for 18 days in presence of chloroquine; assay type: functional, organism-based; conditions: time 18.0 day
4T1 [10] = assay: Antitumor activity against mouse 4T1 cells implanted in female BALB/c mouse model assessed as increase in LC3B expression at 50 mg/kg, po in presence of chloroquine by immunohistochemical analysis; assay type: functional, organism-based
MCF7 [11] = assay: Induction of apoptosis in human MCF7 cells assessed as early apoptotic cells at 1 uM incubated for 48 hrs by Annexin V/FITC and PI staining based flow cytometry analysis (reference value: 6.64%); assay type: functional
4T1 [12] = assay: Antitumor activity against mouse 4T1 cells implanted in female BALB/c mouse model assessed as reduction in c-Myc phosphorylation level at 50 mg/kg, po qd by immunohistochemical analysis; assay type: functional, organism-based
[13] = Toxicity in female BALB/c mouse assessed as effect on spleen at 50 mg/kg, po qd measured after 18 days in presence of chloroquine by H and E staining based analysis; assay type: organism-based; conditions: in vivo, 432 h, time 18 day
[14] = AUC (0 to t) in Sprague-Dawley rat at 10 mg/kg, po by LC-MS/MS analysis; assay type: ADME, organism-based; conditions: in vivo
MCF7 [15] = assay: Induction of autophagy in human MCF7 cells harbouring ATG5 knockout assessed as increase in LC3B expression at 1 uM incubated for 48 hrs by Western blot analysis; assay type: functional, cell-based
4T1 [16] = assay: Antitumor activity against mouse 4T1 cells implanted in female BALB/c mouse model assessed as increase in ERK1/2 phosphorylation at 50 mg/kg, po qd measured from 30 mins to 8 hrs by immunohistochemical analysis; assay type: functional, organism-based; conditions: time 30-480 min
[17] = Toxicity in female BALB/c mouse assessed as effect on spleen at 25 to 50 mg/kg, po qd measured after 18 days by H and E staining based analysis; assay type: organism-based; conditions: in vivo, 432 h, dose 25-50 mg/kg, time 18 day
MCF7 [18] = assay: Inhibition of colony formation in human MCF7 cells harbouring ERK2 knockout at 1 uM incubated for 48 hrs by crystal violet staining based microscopic analysis; assay type: functional, cell-based
MCF7 [19] = assay: Upregulation of C-caspase3 protein expression in human MCF-7 cells at 1 uM incubated for 6 hrs in presence of chloroquine by Western blot analysis; assay type: functional, cell-based
MCF7 [20] = assay: Upregulation of ERK1/2 phosphorylation expression in human MCF7 cells at 2 uM measured after 8 hrs by Western blot analysis; assay type: functional, cell-based
Mitochondrial membrane [21] = assay: Induction of mitochondrial membrane potential loss in human MCF7 cells assessed as reduction in JC-1 aggregates by measuring decrease in red fluorescence at 0.5 uM by flow cytometry analysis (reference value: 24.7%); assay type: cell membranes; parameters: scale not given: the % may be the effect or the level left
Mitochondrial membrane [22] = assay: Induction of mitochondrial membrane potential loss in human MCF7 cells assessed as reduction in JC-1 aggregates by measuring decrease in red fluorescence at 1 uM by flow cytometry analysis (reference value: 24.7%); assay type: cell membranes; parameters: scale not given: the % may be the effect or the level left
[23] = Toxicity in female BALB/c mouse assessed as effect TP level in serum at 25 to 50 mg/kg, po qd measured after 18 days by biochemical analysis; assay type: organism-based; conditions: in vivo, 432 h, dose 25-50 mg/kg, time 18 day
MCF7 [24] = assay: Inhibition of cell invasion in human MCF7 cells at incubated for 48 hrs by crystal violet staining based assay; assay type: functional; conditions: dose 0.5-2 µM
[25] = target: Mitogen-activated protein kinase; ERK1/ERK2 (Homo sapiens) (UniProt P27361+P28482); assay: Binding affinity to ERK1/2 in human MCF7 cells assessed as protection of pronase-mediated protein degradation at 1 to 100 uM pre-incubated with compound for 1 hr followed by pronase digestion for 15 mins by DARTS analysis; assay type: cell-based; conditions: dose 1-100 µM, time 75.0 min
Mitogen-activated protein kinase; ERK1/ERK2 (Homo sapiens), sequence (P27361 whole entry, looked up): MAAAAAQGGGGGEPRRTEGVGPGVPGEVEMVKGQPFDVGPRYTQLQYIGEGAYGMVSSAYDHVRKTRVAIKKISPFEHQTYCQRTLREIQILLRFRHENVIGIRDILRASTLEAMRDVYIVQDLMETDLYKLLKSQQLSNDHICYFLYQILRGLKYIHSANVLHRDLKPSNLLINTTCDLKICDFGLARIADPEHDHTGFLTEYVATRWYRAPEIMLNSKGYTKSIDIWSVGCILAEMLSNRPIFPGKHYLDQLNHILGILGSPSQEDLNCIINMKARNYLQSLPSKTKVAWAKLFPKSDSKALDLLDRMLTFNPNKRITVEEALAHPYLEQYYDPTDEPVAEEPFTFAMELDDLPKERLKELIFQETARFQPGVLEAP
Mitogen-activated protein kinase; ERK1/ERK2 (Homo sapiens), sequence (P28482 whole entry, looked up): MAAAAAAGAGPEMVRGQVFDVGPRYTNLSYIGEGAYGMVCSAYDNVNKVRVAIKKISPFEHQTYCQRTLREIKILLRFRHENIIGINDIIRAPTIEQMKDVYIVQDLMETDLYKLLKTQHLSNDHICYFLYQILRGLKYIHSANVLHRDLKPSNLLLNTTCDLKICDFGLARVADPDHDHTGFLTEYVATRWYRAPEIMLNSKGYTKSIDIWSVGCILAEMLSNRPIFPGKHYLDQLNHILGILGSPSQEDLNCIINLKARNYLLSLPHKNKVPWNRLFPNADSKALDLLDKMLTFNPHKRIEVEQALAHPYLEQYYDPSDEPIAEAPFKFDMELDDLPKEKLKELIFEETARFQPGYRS

4T1 [26] = assay: Antitumor activity against mouse 4T1 cells implanted in female BALB/c mouse model assessed as reduction in tumor growth administered po qd measured for 18 days; assay type: functional, organism-based; conditions: dose 25-50 mg/kg, time 18.0 day
[27] = Cmax in Sprague-Dawley rat at 10 mg/kg, po by LC-MS/MS analysis; assay type: ADME, organism-based; conditions: in vivo
4T1 [28] = assay: Antitumor activity against mouse 4T1 cells implanted in female BALB/c mouse model assessed as reduction in number of Ki67-positive proliferative cells at 25 to 50 mg/kg, po qd by immunohistochemical analysis; assay type: functional, organism-based; conditions: dose 25-50 mg/kg
Mitochondrial membrane [29] = assay: Induction of mitochondrial membrane potential loss in human MCF7 cells assessed as increase in JC-1 monomers by measuring increase in green fluorescence at 2 uM by flow cytometry analysis (reference value: 38.0%); assay type: cell membranes
MCF7 [30] = assay: Induction of autophagy in human MCF7 cells assessed as increase in AMPK phosphorylation level at 0.5 to 2 uM incubated for 48 hrs by Western blotting analysis; assay type: functional, cell-based; conditions: dose 0.5-2 µM
MCF7 [31] = assay: Downregulation of total c-Myc expression in human MCF7 cells at 0.5 to 2 uM measured after 30 mins to 4 hrs by Western blot analysis; assay type: functional, cell-based; conditions: dose 0.5-2 µM, time 30-240 min
[32] = target: Non-receptor tyrosine-protein kinase TYK2 (Homo sapiens) (UniProt P29597); assay: Inhibition of human TYK2 at 10000 nM by DiscoverX KINOMEscan assay relative to control
Non-receptor tyrosine-protein kinase TYK2 (Homo sapiens), sequence (P29597 whole entry): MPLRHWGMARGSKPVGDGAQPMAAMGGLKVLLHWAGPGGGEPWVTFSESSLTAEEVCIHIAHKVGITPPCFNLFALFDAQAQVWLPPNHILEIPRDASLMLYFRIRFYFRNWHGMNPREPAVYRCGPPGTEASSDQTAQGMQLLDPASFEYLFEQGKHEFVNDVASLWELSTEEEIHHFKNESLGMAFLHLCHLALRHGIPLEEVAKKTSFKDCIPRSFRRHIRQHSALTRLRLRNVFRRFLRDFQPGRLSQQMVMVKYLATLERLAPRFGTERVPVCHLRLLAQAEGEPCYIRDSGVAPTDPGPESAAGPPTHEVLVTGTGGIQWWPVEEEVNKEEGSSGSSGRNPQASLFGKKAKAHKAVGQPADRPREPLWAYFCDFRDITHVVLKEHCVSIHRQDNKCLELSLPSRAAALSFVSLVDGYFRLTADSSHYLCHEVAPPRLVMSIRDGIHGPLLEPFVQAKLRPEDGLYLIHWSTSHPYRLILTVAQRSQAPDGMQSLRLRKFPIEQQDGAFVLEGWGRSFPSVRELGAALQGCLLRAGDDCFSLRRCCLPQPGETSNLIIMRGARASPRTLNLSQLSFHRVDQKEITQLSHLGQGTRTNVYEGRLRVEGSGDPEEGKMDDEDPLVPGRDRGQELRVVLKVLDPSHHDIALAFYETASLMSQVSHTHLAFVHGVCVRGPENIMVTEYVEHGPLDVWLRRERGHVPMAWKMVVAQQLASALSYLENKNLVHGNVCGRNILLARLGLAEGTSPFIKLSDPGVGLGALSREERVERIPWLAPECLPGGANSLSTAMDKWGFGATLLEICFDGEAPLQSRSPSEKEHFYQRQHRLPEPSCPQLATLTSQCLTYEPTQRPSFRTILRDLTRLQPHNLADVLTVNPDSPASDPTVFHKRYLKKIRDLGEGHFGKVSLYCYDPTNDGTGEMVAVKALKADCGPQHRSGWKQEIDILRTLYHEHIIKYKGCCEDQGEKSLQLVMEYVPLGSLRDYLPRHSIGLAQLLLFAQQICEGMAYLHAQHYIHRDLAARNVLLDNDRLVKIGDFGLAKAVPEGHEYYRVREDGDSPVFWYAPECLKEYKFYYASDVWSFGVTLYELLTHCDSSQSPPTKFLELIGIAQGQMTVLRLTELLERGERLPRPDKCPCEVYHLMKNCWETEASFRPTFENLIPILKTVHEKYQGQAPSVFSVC

[33] = target: Mitogen-activated protein kinase 1 (Homo sapiens, UniProt P28482); assay: Binding affinity to ERK2 (unknown origin) assessed as dissociation constant by MST analysis
Mitogen-activated protein kinase 1, sequence (P28482 whole entry): as the sequence (P28482 whole entry, looked up) above

4T1 [34] = assay: Antiproliferative activity against mouse 4T1 cells incubated for 48 hrs by CCK-8 method; assay type: functional, cell-based; conditions: 4T1, 48 h

AUC(0-t) [14]: 3910 ng·h/mL | Activity (Mitochondrial membrane [21]): 17.2% | Activity (Mitochondrial membrane [22]): 9.86% | Activity [25]: Active | Cmax [27]: 770 ng/mL | Activity (Mitochondrial membrane [29]): 52.4% | inhibition [32]: 14% | Kd [33]: 0.116 µM | IC50 (4T1 [34]): 2.76 µM
Structure (SMILES): O=C(Nc1cc(C(F)(F)F)cc(C(F)(F)F)c1)N[C@@H](Cc1ccccc1)Cn1c[n+](Cc2ccc3ccccc3c2)c2ccccc21.[Br-]
Activity (4T1 [1]): Active | inhibition in vivo at 25 mg/kg (4T1 [2]): 40.7% | Activity (MCF7 [3]): 14.8% | Activity [4]: Non-toxic | Activity (4T1-Luc [5]): Active | Activity (4T1 [6]): Dose-dependent-effect | Activity (4T1-Luc [7]): Active | Activity (4T1 [8]): Active | Activity (4T1 [9]): Active | Activity (4T1 [10]): Active | Activity (MCF7 [11]): 4.58% | Activity (4T1 [12]): Active | Activity [13]: Non-toxic | Activity (MCF7 [15]): inactive | Activity (4T1 [16]): Active | Activity [17]: Non-toxic | inhibition (MCF7 [18]): inactive | Activity (MCF7 [19]): Active | Activity (MCF7 [20]): Active | Activity [23]: Non-toxic | inhibition (MCF7 [24]): Dose-dependent-effect | Activity (4T1 [26]): Dose-dependent-effect | Activity (4T1 [28]): Active | Activity (MCF7 [30]): Active | Activity (MCF7 [31]): Active
